According to patent US20230190756A1, “PHARMACEUTICAL FORMULATION FOR THE ELIMINATION OF CAUSATIVE AGENTS OF HERPESVIRAL INFECTIONS FROM THE TISSUES OF A MACROORGANISM” (priority 2017, published 2023):

How the values were obtained:
EBV lymphoma cells = details: cited from earlier work
EBV infection = details: cited from earlier work
[1] = test system: p300-induced p65 acetylation; details: in vitro and in vivo; cited from earlier work
[2] = Biological activity of fully substituted derivatives (test not specified)
Excerpt: Also, peak (2) was not divided into several small fragments, nor was it possible to separate it using different conditions of thin layer chromatography, which indicates the stable nature of the formed supramolecular structure from different derivatives.

HDAC = details: cited from earlier work

Compound	biological activity [2]	also measured
Nc1ccccc1NC(=O)c1ccc(CNC(=O)OCc2cccnc2)cc1 [MS275]		effective concentrations for sensitizing to ganciclovir (EBV lymphoma cells): effective at nanomolar concentrations
O=C(O[C@@H]1Cc2c(O)cc(O)cc2O[C@@H]1c1cc(O)c(O)c(O)c1)c1cc(O)c(O)c(O)c1 [No 13 (Table 1), epigallocatechin gallate]		expression of cytokines induced by EBV infection (EBV infection): completely blocks; p300-induced p65 acetylation [1]: cancels
octaacetyl epigalocatechin [fully acetylated epigalocatechin]	did not exhibit biological activity	
octaacetyl glycyrrhizin [fully acetylated glycyrrhizin]	did not exhibit biological activity	
octasuccinyl epigalocatechin [Fully succinylated epigalocatechin]	did not exhibit biological activity	
octasuccinyl glycyrrhizin [Fully succinylated glycyrrhizin]	did not exhibit biological activity	
trichostatin A [TCA]		IC50% (HDAC): in the nanomolar region
